Each block holds one compound with its values, some of them ahead of it.
Columns and labels:
human P2Y14 receptor [1] = target: T1, human P2Y14 receptor (Homo sapiens, UniProt Q15391); details: cited from earlier work
T1 sequence (Q15391 1-338): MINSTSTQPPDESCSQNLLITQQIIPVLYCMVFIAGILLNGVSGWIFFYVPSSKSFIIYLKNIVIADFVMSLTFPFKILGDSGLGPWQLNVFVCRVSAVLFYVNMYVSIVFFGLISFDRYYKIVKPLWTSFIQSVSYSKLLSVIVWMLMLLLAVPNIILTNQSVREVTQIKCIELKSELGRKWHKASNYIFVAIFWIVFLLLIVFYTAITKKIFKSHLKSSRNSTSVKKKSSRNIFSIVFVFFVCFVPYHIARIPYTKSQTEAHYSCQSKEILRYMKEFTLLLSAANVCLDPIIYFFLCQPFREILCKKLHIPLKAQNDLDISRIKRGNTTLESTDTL

human P2Y2 receptor = human P2Y2 receptor (Homo sapiens, UniProt P41231); format: cell-based; details: at concentrations up to 10 μM
human P2Y14 receptor [2] = target: T1, human P2Y14 receptor; assay: Stimulation of PLC; format: cell-based; details: for fold less potent than 1 at the P2Y14 receptor: relative to 1; for activation of the P2Y14 receptor, % of full activation: at 10 μM
rat P2Y14 receptor = details: cited from earlier work

Chain of human P2Y2 receptor (P41231 whole entry): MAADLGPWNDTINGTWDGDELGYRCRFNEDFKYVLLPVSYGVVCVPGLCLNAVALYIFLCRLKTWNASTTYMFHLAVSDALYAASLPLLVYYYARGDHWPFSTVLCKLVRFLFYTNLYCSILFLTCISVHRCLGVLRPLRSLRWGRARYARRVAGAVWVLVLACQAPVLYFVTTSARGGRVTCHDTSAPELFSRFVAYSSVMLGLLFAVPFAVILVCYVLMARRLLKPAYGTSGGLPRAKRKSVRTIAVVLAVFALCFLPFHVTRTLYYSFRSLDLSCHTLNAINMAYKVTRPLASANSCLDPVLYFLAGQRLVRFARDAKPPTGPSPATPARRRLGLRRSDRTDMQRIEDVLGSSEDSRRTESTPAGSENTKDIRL

fold decrease in P2Y14 potency on inversion of the 2″-hydroxyl configuration (human P2Y14 receptor [2]; relative to 21): 2 fold
SMILES: O=c1ccn([C@@H]2O[C@H](COP(=O)(O)OP(=O)(O)OC[C@H]3O[C@H](O)[C@@H](O)[C@@H]3O)[C@@H](O)[C@H]2O)c(=O)[nH]1 [Compound 22, Up2-[5″]arabinose]

activity at the human P2Y2 receptor (activation of PLC) (human P2Y2 receptor): inactive
SMILES: O=c1ccn([C@@H]2O[C@H](COP(=O)(O)OP(=O)(O)OC[C@H]3O[C@](O)(CO)[C@@H](O)[C@@H]3O)[C@@H](O)[C@H]2O)c(=O)[nH]1 [Compound 24, Up2-[6″]fructose]

EC50 (human P2Y14 receptor [2]): > 10 µM | agonist activity at the P2Y14 receptor (human P2Y14 receptor [2]): abolished agonist activity
SMILES: O=c1ccn([C@@]23C[C@H]2[C@H](COP(=O)(O)OP(=O)(O)O[C@H]2O[C@H](CO)[C@@H](O)[C@H](O)[C@H]2O)[C@@H](O)[C@H]3O)c(=O)[nH]1 [Compound 27, Diphosphoric Acid 1″-α-D-[1″]Glucopyranosyl Ester 2-((S)-Methanocarba-uridin-5′-yl)ester]

EC50 (human P2Y14 receptor [2]): > 10 µM | agonist activity at the P2Y14 receptor (human P2Y14 receptor [2]): abolished agonist activity
SMILES: O=c1ccn([C@H]2[C@H](O)[C@H](O)[C@@]3(COP(=O)(O)OP(=O)(O)O[C@H]4O[C@H](CO)[C@@H](O)[C@H](O)[C@H]4O)C[C@H]23)c(=O)[nH]1 [Compound 28, Diphosphoric Acid 1″-α-D-[1″]Glucopyranosyl Ester 2-((N)-Methanocarba-uridin-5′-yl)ester]

activation of the P2Y14 receptor, % of full activation (human P2Y14 receptor [2]): < 20%
SMILES: O=c1ccn([C@@H]2C[C@H](COP(=O)(O)OP(=O)(O)O[C@H]3O[C@H](CO)[C@@H](O)[C@H](O)[C@H]3O)[C@@H](O)[C@H]2O)c(=O)[nH]1 [Compound 29, Diphosphoric Acid 1″-α-D-[1″]Glucopyranosyl Ester 2-(carbocyclic uridin-5′-yl)ester]

The next lines start with the compound.

SMILES: O=c1ccn(C2CC(O)C(COP(=O)(O)OP(=O)(O)OC3OC(CO)C(O)C(O)C3O)O2)c(=O)[nH]1 (stereo not shown) [2′-deoxy-UDPG]
activity at the P2Y14 receptor (human P2Y14 receptor [1]): inactive

SMILES: O=c1ccn([C@@H]2O[C@H](COP(=O)(O)OP(=O)(O)O[C@H]3O[C@H](CO)[C@@H](O)[C@H](O)[C@H]3O)[C@@H](O)[C@H]2O)c(=S)[nH]1 [Compound 2, 2-thio-UDP-[1″]glucose]
activity at the human P2Y2 receptor (activation of PLC) (human P2Y2 receptor): inactive | fold increase in P2Y14 potency (human P2Y14 receptor [1]; relative to 1): 7 fold

SMILES: CO/N=c1/ccn([C@@H]2O[C@H](COP(=O)(O)OP(=O)(O)O[C@H]3O[C@H](CO)[C@@H](O)[C@H](O)[C@H]3O)[C@@H](O)[C@H]2O)c(=O)[nH]1 [Compound 4, Diphosphoric Acid 1″-α-D-[1″]Glucopyranosyl Ester 2-((N^4-methoxy)cytidin-5′-yl)ester]
agonist activity at the P2Y14 receptor (human P2Y14 receptor [2]): only weakly active

SMILES: O=c1ccn([C@@H]2O[C@H](COP(=O)(O)OP(=O)(O)O[C@H]3O[C@H](CO)[C@@H](O)[C@H](O)[C@H]3F)[C@@H](O)[C@H]2O)c(=O)[nH]1 [Compound 11, UDP-2″-F-[1″]2″-deoxy glucose]
fold less potent than 1 at the P2Y14 receptor (human P2Y14 receptor [2]): 9.6 fold

SMILES: O=c1ccn([C@@H]2O[C@H](COP(=O)(O)OP(=O)(O)O[C@H]3O[C@H](CO)[C@@H](O)[C@H](F)[C@H]3O)[C@@H](O)[C@H]2O)c(=O)[nH]1 [Compound 12, UDP-3″-F-[1″]3″-deoxy glucose]
activity at the human P2Y2 receptor (activation of PLC) (human P2Y2 receptor): inactive

SMILES: O=c1ccn([C@@H]2O[C@H](COP(=O)(O)OP(=O)(O)O[C@H]3O[C@H](CO)[C@@H](F)[C@H](O)[C@H]3O)[C@@H](O)[C@H]2O)c(=O)[nH]1 [Compound 13, UDP-4″-F-[1″]4″-deoxy glucose]
fold less potent than 1 at the P2Y14 receptor (human P2Y14 receptor [2]): 2 fold

SMILES: O=c1ccn([C@@H]2O[C@H](COP(=O)(O)OP(=O)(O)O[C@H]3O[C@H](CF)[C@@H](O)[C@H](O)[C@H]3O)[C@@H](O)[C@H]2O)c(=O)[nH]1 [Compound 14, UDP-6″-F-[1″]6″-deoxy glucose]
fold less potent than 1 at the P2Y14 receptor (human P2Y14 receptor [2]): 3.5 fold

SMILES: NCCNC(=O)[C@H]1O[C@H](OP(=O)(O)OP(=O)(O)OC[C@H]2O[C@@H](n3ccc(=O)[nH]c3=O)[C@H](O)[C@@H]2O)[C@H](O)[C@@H](O)[C@@H]1O [Compound 16, Diphosphoric Acid 1″-α-D-[1″](Glucuronic acid-N-(2-amino-ethyl amide))pyranosyl Ester 2-(uridin-5′-yl)ester]
efficacy at the P2Y14 receptor (human P2Y14 receptor [2]): fully activated the receptor

SMILES: CC(=O)NCCNC(=O)[C@H]1O[C@H](OP(=O)(O)OP(=O)(O)OC[C@H]2O[C@@H](n3ccc(=O)[nH]c3=O)[C@H](O)[C@@H]2O)[C@H](O)[C@@H](O)[C@@H]1O [Compound 17a, Diphosphoric Acid 1″-α-D-[1″](Glucuronic acid-N-(2-acetylethyl amide))pyranosyl Ester 2-(uridin-5′-yl)ester]
activity at the human P2Y2 receptor (activation of PLC) (human P2Y2 receptor): inactive | efficacy at the P2Y14 receptor (human P2Y14 receptor [2]): fully activate

SMILES: CC(C)(C)OC(=O)NCCNC(=O)[C@H]1O[C@H](OP(=O)(O)OP(=O)(O)OC[C@H]2O[C@@H](n3ccc(=O)[nH]c3=O)[C@H](O)[C@@H]2O)[C@H](O)[C@@H](O)[C@@H]1O [Compound 17b, Diphosphoric Acid 1″-α-D-[1″] (Glucuronic acid-N-(2-t-butyloxycarbonylethyl amide))pyranosyl Ester 2-(uridin-5′-yl)ester]
efficacy at the P2Y14 receptor (human P2Y14 receptor [2]): fully activate

SMILES: O=c1ccn([C@@H]2O[C@H](COP(=O)(O)OP(=O)(O)OC[C@H]3O[C@H](O)C[C@@H](O)[C@@H]3O)[C@@H](O)[C@H]2O)c(=O)[nH]1 [Compound 20, Up2-[6″]2″-deoxyglucose]
activation of the P2Y14 receptor, % of full activation (human P2Y14 receptor [2]): less than 50%

SMILES: O=c1ccn([C@@H]2O[C@H](COP(=O)(O)OP(=O)(O)O)[C@@H](O)[C@H]2O)c(=O)[nH]1 [UDP, Uridine 5′-diphosphate]
type of activity at the rat P2Y14 receptor (rat P2Y14 receptor): potent agonist | type of activity at the human P2Y14 receptor (human P2Y14 receptor [1]): partial agonist/competitive antagonist

Reference: PMC2760346 (Bioorganic & medicinal chemistry, 2009)
